# Assays:
# male mice C57 BL/6 [1] = test: Effect of phytoecdysones on mice subjected to a fat (lard, inductor) diet for three weeks; assay type: in vivo, mice (Mus musculus line C57BI6)
# Method: A test is carried out for studying the effect of phytoecdysones on mice subjected to a fat diet for three weeks
# The fat diet or inductor diet consists in supplying large amounts of fat matter in the form of lard. The mice selected for this study are male mice C57 BL/6, 6-weeks old at the beginning of this inductor diet. Such mice are a preferred study model for analyzing the impact of the quinoa extract enriched with phytoecdysones according to the invention on the physiological parameters of the metabolic syndrome.
# The inductor diet is a diet enriched with lard.
# (§1) The 24 mice of each series have been subjected to a diet, such as detailed in the table 2, for three weeks and have been treated at the same time with the pure molecule, or a quinoa extract enriched up to 1.6% (2.24% the last treatment week for the control series) or 7% of 20-hydroxyecdysone (20E). The concentration of 20-hydroxyecdysone is adjusted to 40 mg per kg of food.
# (§2) While taking account of the amount of food ingested on average by the mice, the administered dose of 20E corresponds in the three treatments to 5 mg of 20E per kg of the body weight and per day. The food is supplied in excess, three times a week, for both diets and the three treatments. On average, 40 g of food are supplied for each cage and per day, i.e. 6.5 g of food for each mouse and per day.
# (§3) The table 2 below indicates in more detail the composition of the food diet to which the mice are subjected.
# (§4) At the time of the sacrifice, the weight of the mice (Bwt), as well as the weight of the liver, the epididymis adipose tissue (EAT) and the subcutaneous adipose tissue (SCAT) are measured.
# (§5) Cells of the epididymis adipose tissue are taken for carrying out a count and a morphological analysis.
# male mice C57 BL/6 [2] = test: Effect of phytoecdysones on mice subjected to a normal control diet; assay type: in vivo, mice (Mus musculus line C57BI6)
# Method: At the same time, another test is carried out for studying the effect of these same phytoecdysones on mice which have not been subjected to a fat diet, which is considered as a normal control diet.
# as §1, §2, §3, §4, §5
structure (smiles),measurement,setting,value
"CC(C)(O)CC[C@@H](O)[C@](C)(O)[C@H]1CC[C@@]2(O)C3=CC(=O)[C@@H]4C[C@@H](O)[C@@H](O)C[C@]4(C)[C@H]3CC[C@]12C [pure molecule, 20-hydroxyecdysone]",mode of the distribution of adipocyte diameters,"male mice C57 BL/6 [1]; FIG. 5, lard control about 70",60 µm
same,maximum adipocyte diameter of the distribution,"male mice C57 BL/6 [1]; FIG. 5, lard control up to 110",90 µm
same,effect on adipocyte diameter,"male mice C57 BL/6 [1]; epididymis adipose tissue cells, FIG. 4",reduces the adipocyte sizes in a significant manner
same,obesity / adiposity induced by hyperlipidical and hypercalorific diet (conclusion),male mice C57 BL/6 [1]; gonad and subcutaneous tissue,avoid a development of the an obesity
same,"decrease of the adiposity, gonad (epididymis) adipose tissue (% EAT)","male mice C57 BL/6 [1]; three weeks, 5 mg 20E/kg/day, versus untreated lard-diet mice, FIG. 2",50%
same,effect in non obese animals with a normal diet (conclusion),male mice C57 BL/6 [2],no effect
same,"adiposity, gonad (epididymis) adipose tissue (% EAT)","male mice C57 BL/6 [2]; three weeks, 5 mg 20E/kg/day, versus untreated mice, FIG. 2",does not modify the adiposity

# — US8236359B2, “Use of phytoecdysones in the preparation of a composition for acting on the metabolic syndrome” (Institut Biophytis SAS, priority 2007, dated 2012)
